Test results reported in PubChem BioAssay AID1918941 (Molecular Pharmacology Branch, DTP, NCI, 2023).

Test system: SW 1271 complex spheroids, viability
Assay: Anticancer human tumor SW 1271 cell line growth inhibition [LSD1];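 further: spheroids exposed to agents for 7 days before luminescence read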;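 on viability, T/C: 100% = DMSO vehicle control viability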
Details: for IC50: curve of first compound; for viability, T/C: stronger effect = lower value
Method in brief: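 Complex spheroids of tumor cells with HUVEC and human MSCs, exposed to iadademstat combined with other agents. Each agent tested in half-log steps from near clinical Cmax (else 10 microM top), DMSO ≤0.25%.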

[1] = second compound 0.1 µM, first compound 0.0316 µM
[2] = second compound 0.1 µM, first compound 0.1 µM
[3] = second compound 0.1 µM, first compound 0.316 µM
[4] = second compound 0.1 µM, first compound 1 µM
[5] = second compound 0.1 µM, first compound 3.16 µM
[6] = second compound 0.1 µM, first compound 10 µM
[7] = second compound 0.316 µM, first compound 0.0316 µM
[8] = second compound 0.316 µM, first compound 0.1 µM
[9] = second compound 0.316 µM, first compound 0.316 µM
[10] = second compound 0.316 µM, first compound 1 µM
[11] = second compound 0.316 µM, first compound 3.16 µM
[12] = second compound 0.316 µM, first compound 10 µM
[13] = second compound 1 µM, first compound 0.0316 µM
[14] = second compound 1 µM, first compound 0.1 µM
[15] = second compound 1 µM, first compound 0.316 µM
[16] = second compound 1 µM, first compound 1 µM
[17] = second compound 1 µM, first compound 3.16 µM
[18] = second compound 1 µM, first compound 10 µM
[19] = second compound 3.16 µM, first compound 0.0316 µM
[20] = second compound 3.16 µM, first compound 0.1 µM
[21] = second compound 3.16 µM, first compound 0.316 µM
[22] = second compound 3.16 µM, first compound 1 µM
[23] = second compound 3.16 µM, first compound 3.16 µM
[24] = second compound 3.16 µM, first compound 10 µM
[25] = second compound 10 µM, first compound 0.0316 µM
[26] = second compound 10 µM, first compound 0.1 µM
[27] = second compound 10 µM, first compound 0.316 µM
[28] = second compound 10 µM, first compound 1 µM
[29] = second compound 10 µM, first compound 3.16 µM
[30] = second compound 10 µM, first compound 10 µM

Row | SMILES | IC50 (second compound 0.1 µM) [nM] | IC50 (second compound 0.316 µM) [nM] | IC50 (second compound 1 µM) [nM] | IC50 (second compound 3.16 µM) [nM] | IC50 (second compound 10 µM) [nM] | viability, T/C [1] [%] | viability, T/C [2] [%] | viability, T/C [3] [%] | viability, T/C [4] [%] | viability, T/C [5] [%] | viability, T/C [6] [%] | viability, T/C [7] [%] | viability, T/C [8] [%] | viability, T/C [9] [%] | viability, T/C [10] [%] | viability, T/C [11] [%] | viability, T/C [12] [%] | viability, T/C [13] [%] | viability, T/C [14] [%] | viability, T/C [15] [%] | also measured
1 | CC1(C)CCC(CN2CCN(c3ccc(C(=O)NS(=O)(=O)c4ccc(NCC5CCOCC5)c([N+](=O)[O-])c4)c(Oc4cnc5[nH]ccc5c4)c3)CC2)=C(c2ccc(Cl)cc2)C1 + NC1CCC(NC2CC2c2ccccc2)CC1 | 2100 | 2050 | 2040 | 2170 | 2350 | 103 | 95.6 | 94.6 | 92.2 | 26.9 | 0.57 | 100 | 100 | 106 | 96.6 | 21.6 | 0.63 | 89.5 | 90.5 | 99.7 | viability, T/C [16]: 103%; viability, T/C [17]: 21.9%; viability, T/C [18]: 0.38%; viability, T/C [19]: 96.4%; viability, T/C [20]: 101%; viability, T/C [21]: 99%; viability, T/C [22]: 97.2%; viability, T/C [23]: 26.9%; viability, T/C [24]: 0.42%; viability, T/C [25]: 92.5%; viability, T/C [26]: 102%; viability, T/C [27]: 97.8%; viability, T/C [28]: 95.4%; viability, T/C [29]: 34.3%; viability, T/C [30]: 0.66%
2 | CC1COCCN1c1cc(C2(S(C)(=N)=O)CC2)nc(-c2ccnc3[nH]ccc23)n1 (stereo not given) + NC1CCC(NC2CC2c2ccccc2)CC1 | > 10000 | 8630 | > 10000 | 9170 | 3280 | 108 | 103 | 111 | 76.2 | 69.1 | 58.8 | 100 | 95.8 | 99.1 | 81.7 | 59.5 | 48.3 | 94.5 | 101 | 85.1 | viability, T/C [16]: 68.2%; viability, T/C [17]: 72.3%; viability, T/C [18]: 53.7%; viability, T/C [19]: 82.9%; viability, T/C [20]: 88.7%; viability, T/C [21]: 86.7%; viability, T/C [22]: 75.9%; viability, T/C [23]: 73.4%; viability, T/C [24]: 47.9%; viability, T/C [25]: 97.4%; viability, T/C [26]: 92.3%; viability, T/C [27]: 71.1%; viability, T/C [28]: 78.4%; viability, T/C [29]: 50.9%; viability, T/C [30]: 19.4%
